We go through two compounds from patent US11458132B2, “Quinolin-2(1H)-one inhibitors of Late SV40 Factor” (TRUSTEES OF BOSTON UNIVERSITY, priority 2020, dated 2022).

By GI50 is commonly meant the concentration giving 50% growth inhibition.

Test [1] has as its system RhoA/ROCK pathway in FH-B cells. The test can be described thus: Phospho-MLC2 immunoblot (RhoA/ROCK pathway). The test is classed as cell-based, human. The following applies: 4 μM FQI1, 10 minutes. How it is done: For analysis of phosphorylated MLC2, FH-B cells were treated as indicated in the figure legend, washed with PBS and incubated for 5 minutes in lysis buffer (50 mM Tris-HCl pH 8.0, 50 mM NaF, 5 mM MgCl2, 150 mM NaCl, 1% Triton X-100) supplemented with Tricine Sample Buffer (Bio-rad, 1610739), protease inhibitor cocktail (1:200), phosphatase inhibitor cocktail (1:100), and 1% ([…]. Lysates were incubated at 100° C. for 15 minutes and centrifuged at 21,000×g for 10 minutes prior to SDS-PAGE.
Gel electrophoresis and immunoblotting: Microtubule sedimentation fractions and MLC2 analysis samples were separated by electrophoresis through tris-glycine and tricine polyacrylamide gels, respectively, which were transferred to PVDF membranes. Membranes with microtubule sedimentation fractions and MLC2 analysis samples were blocked in 5% milk in TBST and in 5% BSA in TBST, respectively. After overnight incubation with primary antibody at 4° C., the membranes were washed and incubated with secondary antibody for 1 hour at room temperature. Primary antibodies included anti-α-tubulin (1:2,000, Thermo Fisher Scientific, PA529444), anti-acetylated tubulin (1:1,000, Sigma-Aldrich, T7451), anti-phospho MYL9 (1:200, Thermo Fisher Scientific, PA517727), and anti-β-actin (1:5,000, Sigma-Aldrich, A1978). […] Band intensities were quantified from scanned films by densitometry using ImageJ.
Background: A western blot detects proteins with antibodies after separation by electrophoresis.

Another test relates to RPE cells. The test can be described thus: Cell spreading area and circularity by microscopy. The test is classed as cell-based. How it is done:
Cells were washed as before, treated with Phalloidin-iFluor 488 Reagent (abcam, ab176753) for 1 hour in 1-5% BSA in PBS, followed by Hoechst 33342 (Thermo Fisher Scientific, H3570) for 5 minutes. Mounting medium (Fisher Scientific, P10144) and cover slips were applied onto dried cells. Individually discernible cells were imaged on an Olympus Fluoview 10i. Using ImageJ, the phalloidin channel was thresholded and area and circularity values were measured and integrated into swarmplots using Python's seaborn library.

For a further test, the system named is HT-29 cells. The test can be described thus: Allogeneic HT-29 xenograft model in athymic mice. It counts as in vivo. The text has this:
(§1) Syngeneic and allogeneic xenograft models: We used 8-12 weeks-old athymic female mice for the allogeneic xenograft model and C57BL/6 mice for a syngeneic xenograft model, as described previously^26,27. All the mice were obtained from The Jackson Laboratory and housed at Boston University Medical Center based on the approval from the Institutional Animal Care and Use Committee. Each mouse was implanted subcutaneously on the dorsal surface and was monitored for tumor growth as measured with a VWR Digital Caliper. The tumor volume was calculated twice a week using the equation: length×width×height.
(§2) The mice were randomly separated into two groups once tumor volumes reached 100 mm^3. The FQI2-34 was suspended in a mixture of ethanol and DMSO. The mixture was agitated until the compound had completely dissolved. This solution was further diluted in 20% PEG 400 and water to give a final concentration of 2 mg/ml. FQI2-34 or vehicle was injected intraperitoneally daily at 5 mg/kg for 5 days, followed by a break for 2 days. After 21 days, both groups of mice were sacrificed, and the tumors were harvested.
(§3) Cell culture and other reagents: HT-29 cells were obtained from ATCC and grown in the Roswell Park Memorial Institute (RPMI) medium supplemented with 10% FBS and penicillin and streptomycin. Cells were injected with the growth-factor poor Matrigel (Millipore, catalogue number DLW354263) using a 23-gauge needle for a total volume of 200 microliters. The MC38 cell line was obtained from ATCC and grown in RPMI medium supplemented with 10% FBS and penicillin and streptomycin.
IHC was performed on the paraffin-embedded tumors as described previously^26-28. The manufacturer's protocol was used along with reagents from the Abcam Mouse and Rabbit Specific HRP/DAB IHC Detection Kit—Micro-polymer (ab236466). Primary antibodies and their dilutions used to detect the respective proteins were: Axin2 (Abcam, #ab32197, 1:100), β-catenin (BD Biosciences, #610154, 1:100), LSF (BD Biosciences, #610818, 1:100), SOX9 (Abcam, #ab185230, 1:100), Ki-67 (Cell Signaling, #8D5, 1:100). […]
(§4) All images and quantification were performed using the Nikon Eclipse TE2000 Inverted Microscope with the color camera at the Boston University School of Medicine (BUSM) Imaging Core. Random high-power field (hpf) images of every tumor sample were obtained. For quantification the signal was converted to grayscale, and the number and intensity of pixels were analyzed as integrated density by using Fiji. The integrated density of all the images was normalized to its area. The images were processed in ImageJ (National Institutes of Health, Bethesda, Md.) to quantitate the expression of SOX-9, AXIN-2, and LSF. Regions of interest were drawn and the expression was measured using integrated density normalized to the surface area. The average normalized integrated image densities from multiple hpfs were used to perform the correlational analysis between expression levels of pairs of proteins.

The test system of a further test is Huh7 cells. Description: Growth inhibition curves in Huh7 cells. It counts as cell-based. The following applies: Homo sapiens, Huh-7.
The test system of the next test is MC38 cells. Description: Syngeneic MC38 xenograft model in C57BL/6 mice. It counts as in vivo.
From the text: as §1, §2, §3
IHC was performed on the paraffin-embedded tumors as described previously^26-28. The manufacturer's protocol was used along with reagents from the Abcam Mouse and Rabbit Specific HRP/DAB IHC Detection Kit—Micro-polymer (ab236466). Primary antibodies and their dilutions used to detect the respective proteins were: Axin2 (Abcam, #ab32197, 1:100), β-catenin (BD Biosciences, #610154, 1:100), LSF (BD Biosciences, #610818, 1:100), SOX9 (Abcam, #ab185230, 1:100), Ki-67 (Cell Signaling, #8D5, 1:100).
as §4

Setting [2] is: xenografts, immunohistochemistry.

`CCOc1ccccc1C1CC(=O)Nc2cc3c(cc21)OCO3` (centres unmarked) [FQI1, 8-(2-ethoxyphenyl)-7,8-dihydro-[1,3]dioxolo[4,5-g]quinolin-6(5H)-one]: the “phosphorylation of MLC2” value in test [1] was “elevated”. Moreover, the cell spreading area result in the test with RPE cells (4 μM FQI1, 1 hour) is reported as “did not respond to FQI1 with significant change in cell spreading area”. In the test on RPE cells (4 μM FQI1 or 1 μM nocodazole, 1 hour), the circularity entry is reported as “significantly more circular in shape”.

On to `CCOc1cc(N(C)C)ccc1-c1cc(=O)[nH]c2cc3c(cc12)OCO3` [FQI2-34, 8-(4-(dimethylamino)-2-ethoxyphenyl)-[1,3]dioxolo[4,5-g]quinolin-6(5H)-one], for which, in the test on HT-29 cells (day 9, day 12 and day 17), the “tumor volumes compared to controls” value is given as “significantly lower tumor volumes”. Further, in the test on HT-29 cells (day 21), the “histopathological analysis of tumors (H & E)” value was “lower tumor mass organized in luminal regions interspersed within the interstitium” and the “tumor volume, treated versus control” value is on record as 2 times. This compound came in with a tumor volume with HT-29 cells (day 21, 5 mg/kg intraperitoneally daily for 5 days each week) of 1120±193 mm^3. Also, the “AXIN2, CCND1 and SOX9 by quantitative RT-PCR” value in the test on HT-29 cells (xenograft lysates at end of treatment) is given as “significantly downregulated”. Besides, in the test on HT-29 cells (xenografts), the “increase in TUNEL-positive cells” value came to 1.8 fold. In the test with HT-29 cells (setting [2]), the “CRC cells with nuclear β-catenin, lower than control” value is reported as 4 fold; the “downregulation of Ki-67” value is listed as 4.2 fold; the “reduction in AXIN2 (integrated density)” value is reported as 5 fold; the “reduction in SOX9 (integrated density)” value came to 3.2 fold. In the test with Huh7 cells, this compound showed a GI50 of 22.2 nM. Further, the “tumor volumes, lower than controls” value in the test with MC38 cells (day 14 and day 21) is on record as roughly 2 fold. Also, the “CRC mass on H&E stain” value in the test with MC38 cells (xenografts) is “substantial reduction in CRC mass”. In the test with MC38 cells (setting [2]), the Ki-67 levels entry was “suppressed”, the “reduction in AXIN2 expression levels” value is reported as roughly 2 fold, the “reduction in SOX9 expression levels” value is reported as roughly 2 fold and the “reduction in number of cells with nuclear β-catenin” value is listed as 2.3 fold.
